Values quoted from earlier work in patent US20230270635A1, “METHODS AND COMPOSITIONS FOR COSMETIC APPLICATIONS” (GLO Pharma, Inc., priority 2021, published 2023).

settings: non-ionic surfactants with HLB of 10 or less, Table 1

For Sorbitan trioleate, which HLB is on record?
The HLB was “HLB = 1.8”.

For PEG-30 dipolyhydroxy-stearate, which HLB is on record?
Its HLB is “HLB = 5.5”.

For PEG-8 dioleate, which HLB is on record?
The HLB was “HLB = 7.2”.

For “Polyoxyethylene (2) Oleyl Ether [Oleth-2]”, which HLB is on record?
Its HLB is “HLB = 4.9”.

For `CCCCCCCCCCCCCCCCCC(=O)OCCOC(=O)CCCCCCCCCCCCCCCCC` [Glycol distearate], which HLB is on record?
Its HLB is “HLB = 1”.

For Sorbitan monolaurate, which HLB is on record?
The HLB was “HLB = 8.6”.

Which HLB does the source give for Glyceryl stearate SE here?
Its HLB is “HLB = 5.8”.

With “Polyoxyethylene (5) Oleyl Ether [Oleth-5]” as the compound, how does the HLB read?
Its HLB is “HLB = 9”.

Which HLB does the source give for `CCCCCCCCCCCCCCCCCC(=O)OCC(O)CO` (stereo not shown) [Glyceryl stearate] here?
The HLB was “HLB = 3.8”.

With “Polyoxyethylene (3) Oleyl Ether [Oleth-3]” as the compound, how does the HLB read?
Its HLB is “HLB = 6.6”.

For `CCCCCCCCCCCCCCCCCCOCCOCCO` [Steareth-2, 2-(2-octadecoxyethoxy)ethanol], which HLB is on record?
The HLB was “HLB = 4.9”.

For “Polyoxyethylene (4) dilaurate [PEG-4 dilaurate]”, which HLB is on record?
Its HLB is “HLB = 6”.

Which HLB does the source give for “Polyoxyethylene (8) dilaurate [PEG-8 dilaurate]” here?
Its HLB is “HLB = 10”.

Which HLB does the source give for Sorbitan monopalmitate here?
The HLB was “HLB = 6.7”.

For `CCCCCCCCCCCCCCCCOCCOCCO` [Ceteth-2, Diethylene glycol hexadecyl ether], which HLB is on record?
The HLB was “HLB = 5.3”.

For Sorbitan monostearate, which HLB is on record?
The HLB was “HLB = 4.7”.

Which HLB does the source give for `CCCCCCCCCCCC(=O)OCC(O)CO` (stereo not shown) [Glyceryl laurate] here?
Its HLB is “HLB = 5.2”.

With `CCCCCCCC(=O)OCC(O)CO` (stereo not shown) [Glyceryl caprylate] as the compound, how does the HLB read?
Its HLB is “HLB = 5-6”.

For Sorbitan Isostearate, which HLB is on record?
Its HLB is “HLB = 4.7”.

Which HLB does the source give for Sorbitan monooleate here?
Its HLB is “HLB = 4.3”.

Which HLB does the source give for `CCCCCCCCCCCCCCCCCC(=O)OCCO` [Glycol stearate] here?
The HLB was “HLB = 2.9”.

For Propylene glycol monolaurate, which HLB is on record?
The HLB was “HLB=3”.

Which HLB does the source give for PEG-8 distearate here?
Its HLB is “HLB = 8”.

Which HLB does the source give for Polysorbate 61 here?
The HLB was “HLB = 9.6”.

With Sorbitan sesquioleate as the compound, how does the HLB read?
Its HLB is “HLB = 3.7”.
